# Where two headings read alike, the source gives them in different places.
# What was measured:
# [1] = molecular target: T1, recombinant Arabidopsis thaliana ALS wild-type enzyme (WT—sensitive) (Arabidopsis thaliana, UniProt P17597); assay: biochemical
# T1 construct: Protein constructs contained an 85 amino acid N-terminal deletion (chloroplast transit peptide); Hexa-histidine tag (N); made in house
# Procedure: (§1) Effects of SNPs identified in sequencing analysis on ALS activity were studied using A. thaliana. The ALS gene from A. thaliana and derivatives thereof were de novo synthesized and subcloned into pET-24d(+) (Life Technologies. Grand Island, NY, USA) using NcoI and XhoI restriction sites. Protein constructs contained an 85 amino acid N-terminal deletion (chloroplast transit peptide) and the addition of an N-terminal Hexa-histidine tag to facilitate purification.
# (§2) Lysis was performed by at least two passes through a fluidizer, followed by centrifuging at 80000×g for 30 min at 4 °C. […] Fractions containing ALS protein were pooled and stored at −20 °C.
# (§3) Inhibitors, purchased from Sigma as Pestanal standards (Sigma-Aldrich, Deisenhofen, Germany), were dissolved in DMSO and added to the reaction mixture. Inhibitors evaluated included imidazolinone, sulfonylurea, triazolopyrimidines, sulfonylamino-carbonyl- triazolinones, and pyrimidinyl (thio) benzoate herbicides. The reaction mixture was incubated at 30 °C for 60 min and stopped with 70 µl of H2SO4 (3 M). The reaction was then heated to 56 °C for 15 min to convert acetolactate into acetoin. […] For each inhibitor, resistance factors were calculated by dividing IC50 values for mutant and sensitive ALS.
# [2] = test system: recombinant Arabidopsis thaliana ALS variant W574L; type: biochemical; settings: IC50 mutant divided by IC50 sensitive ALS; max inhibitor concentration 1.00 × 10^−04 M
# Procedure: as §1, §2, §3
# [3] = test system: recombinant Arabidopsis thaliana ALS variant A205V; type: biochemical; settings: IC50 mutant divided by IC50 sensitive ALS; max inhibitor concentration 1.00 × 10^−04 M
# Procedure: as §1, §2, §3
# [4] = test system: recombinant Arabidopsis thaliana ALS variant A205F; type: biochemical; settings: IC50 mutant divided by IC50 sensitive ALS; max inhibitor concentration 1.00 × 10^−04 M
# Procedure: as §1, §2, §3
# [5] = test system: annual bluegrass (Poa annua L.); assay: Whole plant non-target site resistance experiment with P450 inhibitors malathion or PBO (control 21 days after treatment); type: in vivo; settings: for Annual bluegrass control S: susceptible (S)
# Procedure: Additional experiments were conducted during March–April 2015 to determine if non-target site based mechanisms conferred resistance to ALS inhibitors in our annual bluegrass population, POAAN-R3. Plants (RP6, RP7, and S) were cultured in plastic conical containers as previously described and allowed to acclimate to the glasshouse for 18 days prior to initiating two experiments.
# In the first experiment, resistant (RP6, RP7) and susceptible (S) plants were treated with foramsulfuron at 29 g ha^−1, trifloxysulfuron (Monument. Syngenta Professional Products. Greensboro, NC, USA) at 27.8 g ha^−1, imazaquin (Image. BASF Corporation. Research Triangle Park, NC) at 27.5 g ha^−1, or bispyribac-sodium (Velocity. Valent USA Corporation. Walnut Creek, CA, USA) at 70 g ha^−1. All herbicides were applied alone or in combination with either malathion (Spectrum Group. St. Louis, MO, USA) at 1000 g ha^−1 or piperonyl butoxide (Sigma Aldrich. St. Louis, MO, USA) at 2100 g ha^−1. Malathion and piperonyl butoxide (PBO) inhibit cytochrome P450 monooxygenases involved in metabolism of ALS inhibiting herbicides and are commonly used at the application rates tested herein to evaluate non-target site based resistance mechanisms in weeds (Burnet et al. [1994]; Christopher et al. [1992]; Yu and Powles [2014b]; Rao et al. [1995]). All herbicides were mixed in water carrier and included non-ionic surfactant at 0.25 % v/v. Malathion and PBO were mixed with methanol and de-ionized water (50:50) and applied 60 min prior to herbicide application using a previously described enclosed spray chamber on 13 February 2015.
# Annual bluegrass control was visually assessed on a 0 (i.e., no control) to 100 % (i.e., complete kill) scale relative to the non-treated 21 days after treatment. After all control data had been collected, aboveground biomass was harvested from each plastic conical container at the soil line using scissors, dried at 100 °C, and weighed. Treatments were arranged as a 3 × 5 × 3 factorial with three plant selections (RP6, RP7, S), five herbicides (foramsulfuron, trifloxysulfuron, imazaquin, bispyribac-sodium, non-treated) and three P450 inhibitor treatments (malathion, PBO, non-treated) in a completely randomized design with four replications and repeated in separate glasshouses during February 2015.
# [6] = test system: annual bluegrass population POAAN-R3; parameters: method as in Brosnan et al. [2015]; settings: ref Brosnan et al. [2015], cited from earlier work
# [7] = test system: annual bluegrass (Poa annua L.); assay: Whole plant confirmation of target-site resistance (visual control and dry biomass 28 days after treatment); type: in vivo
# Procedure: Progeny of all POAAN-R3 plants subjected to genetic sequencing (RP1–RP8) were surface seeded into separate 10.2 × 10.2 cm greenhouse pots (Dillen Products/Myers Industries, Inc. Middlefield, OH, USA.) filled with a peat moss growing medium (ProMix BX Mycorrhizae. Premier Tech Horticulture, Quakertown, PA, USA) on 5 January 2015. The susceptible annual bluegrass population (S) included in our sequencing analysis was also seeded in the same fashion.
# After seeding, pots were placed inside a growth chamber (Conviron A1000. Controlled Environments Inc, Hendersonville, NC) configured to provide 14 h day at 19 °C and a 10 h night at 10 °C. Light intensity inside the chamber averaged 296 μmol m^−2 s^−1. Irrigation was applied to each pot daily using distilled water and a misting nozzle. Annual bluegrass emergence was first noted on 16 January 2015. Plants remained inside the growth chamber until 26 January 2015. On this date, seedlings of each plant (RP1–RP8, S) were transplanted into individual 164 cm^3 plastic conical containers (SC10 Super Cell Cone-tainer. Stuewe and Sons. Tangent, OR 97389) filled with Sequatchie silt loam (fine-loamy, siliceous, semiactive, thermic humic Hapludult) measuring 6.2 in soil pH and 2.1 % in organic matter content. Transplants were replicated such that 32 plastic conical containers were created for each annual bluegrass plant analyzed in previous experiments (RP1–RP8, S). Immediately after transplanting, plastic conical containers were placed in a glasshouse located at the University of Tennessee (Knoxville, TN, USA; 35.56, 83.56). Peak light intensity in this glasshouse averaged 714 μmol m^−2 s^−1 with day/night temperatures averaging 27/17 °C. Irrigation was applied daily using an overhead misting system and plants were not clipped prior to initiating this study.
# Plants were allowed to acclimate to this glasshouse environment for 10 days prior to being treated with foramsulfuron (Revolver. Bayer Environmental Sciences. Research Triangle Park, NC, USA) at 29 g ha^−1, imazamox (Clearcast. BASF Corporation. Research Triangle Park, NC) at 140 g ha^−1, or simazine (Princep 4L. Syngenta Professional Products. Greensboro, NC) at 1120 g ha^−1. Per label recommendations, imazamox and simazine treatments included a non-ionic surfactant (Activator-90. Loveland Products Inc. Greeley, CO, USA) at 0.25 % v/v. All treatments were applied in an enclosed spray chamber (Generation III track sprayer. DeVries Manufacturing, Hollandale, MN, USA) using a water carrier at 215 L ha^−1 through an 8004 EVS nozzle (TeeJet, Technologies, Spraying Systems Co., Glendale Heights, IL, USA). These herbicide treatments were selected to confirm results of genetic sequencing that RP1–RP8 were resistant to sulfonylurea, imidazolinone, and photosystem II inhibiting herbicides. A non-treated control treatment was included with each resistant (RP1–RP8) and susceptible (S) plant for comparison. Herbicides were applied on 5 February 2015 when plants were at a two-to-three leaf stage, prior to annual bluegrass tiller formation.
# Annual bluegrass control was visually assessed on a 0 (i.e., no control) to 100 % (i.e., complete kill) scale relative to the non-treated 28 days after treatment. After all control data had been collected, aboveground biomass was harvested from each plastic conical container at the soil line using scissors, dried at 100 °C for 3 days, and weighed.
# Treatments were arranged as a 9 × 4 factorial with nine plant selections (i.e., RP1–RP8, S) and four herbicide treatments (i.e., foramsulfuron, imazamox, simazine, non-treated) in a completely randomized design with four replications and repeated in time and space during February 2015. Plants were the same age during both experimental runs.
# [8] = RP6, herbicide alone, foramsulfuron 29, trifloxysulfuron 27.8, imazaquin 27.5, bispyribac-sodium 70 g ha^−1
# [9] = RP6, herbicide with PBO 2100 g ha^−1 applied 60 min prior
# [10] = RP6, herbicide with malathion 1000 g ha^−1 applied 60 min prior
# [11] = RP7, herbicide alone, foramsulfuron 29, trifloxysulfuron 27.8, imazaquin 27.5, bispyribac-sodium 70 g ha^−1
# [12] = RP7, herbicide with PBO 2100 g ha^−1 applied 60 min prior
# [13] = RP7, herbicide with malathion 1000 g ha^−1 applied 60 min prior
# [14] = herbicide alone, foramsulfuron 29, trifloxysulfuron 27.8, imazaquin 27.5, bispyribac-sodium 70 g ha^−1
# [15] = herbicide with PBO 2100 g ha^−1 applied 60 min prior
# [16] = herbicide with malathion 1000 g ha^−1 applied 60 min prior
# T1 sequence (P17597 86-670): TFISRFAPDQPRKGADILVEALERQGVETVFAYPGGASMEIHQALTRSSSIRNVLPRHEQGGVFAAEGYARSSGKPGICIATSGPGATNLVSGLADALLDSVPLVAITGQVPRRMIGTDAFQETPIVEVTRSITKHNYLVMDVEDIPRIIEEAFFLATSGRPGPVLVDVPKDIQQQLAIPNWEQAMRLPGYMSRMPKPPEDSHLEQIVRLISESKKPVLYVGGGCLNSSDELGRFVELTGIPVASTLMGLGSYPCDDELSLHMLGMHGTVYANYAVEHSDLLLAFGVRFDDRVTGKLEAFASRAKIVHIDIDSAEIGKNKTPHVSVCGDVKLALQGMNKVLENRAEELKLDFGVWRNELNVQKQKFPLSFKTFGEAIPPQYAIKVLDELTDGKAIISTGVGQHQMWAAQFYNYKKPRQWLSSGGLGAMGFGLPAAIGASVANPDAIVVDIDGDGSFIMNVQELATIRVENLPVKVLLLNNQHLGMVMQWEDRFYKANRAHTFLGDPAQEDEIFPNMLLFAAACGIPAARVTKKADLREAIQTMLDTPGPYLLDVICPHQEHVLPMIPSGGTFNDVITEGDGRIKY
SMILES,Resistance factor W574L [2],Resistance factor A205V [3],Resistance factor A205F [4],"Annual bluegrass control RP6 [5, 8] [%]","Annual bluegrass control RP6 [5, 9] [%]","Annual bluegrass control RP6 [5, 10] [%]","Annual bluegrass control RP7 [5, 11] [%]","Annual bluegrass control RP7 [5, 12] [%]","Annual bluegrass control RP7 [5, 13] [%]","Annual bluegrass control S [5, 14] [%]","Annual bluegrass control S [5, 15] [%]","Annual bluegrass control S [5, 16] [%]",other results
CC(C)C1(C)N=C(c2nc3ccccc3cc2C(=O)O)NC1=O (stereo not shown) [Imazaquin],65,36,19,36,24,32,11,9,8,53,71,64,IC50 [1]: 1.55 µM
CCNc1nc(Cl)nc(NCC)n1 [Simazine],,,,,,,,,,,,,"control of POAAN-R3 ([6]; 140 to 9000 g ha^−1): ≤ 20%; Annual bluegrass biomass RP1 ([7]; RP1, aboveground dry biomass 28 days after treatment, foramsulfuron 29, imazamox 140, simazine 1120 g ha^-1): 124 % of nontreated control; Annual bluegrass control RP1 ([7]; RP1 plants, 28 days after treatment, 2 to 3 leaf stage, foramsulfuron 29, imazamox 140, simazine 1120 g ha^−1): 0%; Annual bluegrass biomass RP2 ([7]; RP2, aboveground dry biomass 28 days after treatment, foramsulfuron 29, imazamox 140, simazine 1120 g ha^-1): 105 % of nontreated control; Annual bluegrass control RP2 ([7]; RP2 plants, 28 days after treatment, 2 to 3 leaf stage, foramsulfuron 29, imazamox 140, simazine 1120 g ha^−1): 0%; Annual bluegrass biomass RP3 ([7]; RP3, aboveground dry biomass 28 days after treatment, foramsulfuron 29, imazamox 140, simazine 1120 g ha^-1): 140 % of nontreated control; Annual bluegrass control RP3 ([7]; RP3 plants, 28 days after treatment, 2 to 3 leaf stage, foramsulfuron 29, imazamox 140, simazine 1120 g ha^−1): 0%; Annual bluegrass biomass RP4 ([7]; RP4, aboveground dry biomass 28 days after treatment, foramsulfuron 29, imazamox 140, simazine 1120 g ha^-1): 95 % of nontreated control; Annual bluegrass control RP4 ([7]; RP4 plants, 28 days after treatment, 2 to 3 leaf stage, foramsulfuron 29, imazamox 140, simazine 1120 g ha^−1): 0%; Annual bluegrass biomass RP5 ([7]; RP5, aboveground dry biomass 28 days after treatment, foramsulfuron 29, imazamox 140, simazine 1120 g ha^-1): 82 % of nontreated control; Annual bluegrass control RP5 ([7]; RP5 plants, 28 days after treatment, 2 to 3 leaf stage, foramsulfuron 29, imazamox 140, simazine 1120 g ha^−1): 0%; Annual bluegrass biomass RP6 ([7]; RP6, aboveground dry biomass 28 days after treatment, foramsulfuron 29, imazamox 140, simazine 1120 g ha^-1): 0 % of nontreated control; Annual bluegrass control RP6 ([7]; RP6 plants, 28 days after treatment, 2 to 3 leaf stage, foramsulfuron 29, imazamox 140, simazine 1120 g ha^−1): 100%; Annual bluegrass biomass RP7 ([7]; RP7, aboveground dry biomass 28 days after treatment, foramsulfuron 29, imazamox 140, simazine 1120 g ha^-1): 99 % of nontreated control; Annual bluegrass control RP7 ([7]; RP7 plants, 28 days after treatment, 2 to 3 leaf stage, foramsulfuron 29, imazamox 140, simazine 1120 g ha^−1): 0%; Annual bluegrass biomass RP8 ([7]; RP8, aboveground dry biomass 28 days after treatment, foramsulfuron 29, imazamox 140, simazine 1120 g ha^-1): 101 % of nontreated control; Annual bluegrass control RP8 ([7]; RP8 plants, 28 days after treatment, 2 to 3 leaf stage, foramsulfuron 29, imazamox 140, simazine 1120 g ha^−1): 0%; Annual bluegrass control S ([7]; susceptible (S) plants, 28 days after treatment, 2 to 3 leaf stage, foramsulfuron 29, imazamox 140, simazine 1120 g ha^−1): 98%; Annual bluegrass biomass S ([7]; susceptible (S), aboveground dry biomass 28 days after treatment, foramsulfuron 29, imazamox 140, simazine 1120 g ha^-1): 5 % of nontreated control"
COc1cc(OC)nc(NC(=O)NS(=O)(=O)c2ncccc2OCC(F)(F)F)n1 [Trifloxysulfuron],6447,9,2983,38,55,49,22,17,28,94,94,92,"IC50 ([1]; concentration for 50 % inhibition of WT enzyme, max inhibitor concentration 1.00 × 10^−04 M, read-out: WT sensitivity [IC50]): 0.0059 µM; control of POAAN-R3 ([6]; rates as high as 223 g ha^−1): ≤ 40%"

# Source: publication PMC4698308, “A new amino acid substitution (Ala-205-Phe) in acetolactate synthase (ALS) confers broad spectrum resistance to ALS-inhibiting herbicides” (Planta, 2015)
